This is an account of results in ChEMBL document CHEMBL1909046, “DrugMatrix in vitro pharmacology data”.

pIC50: −log10 of the molar value.

The target in data set [1] is Beta-1 adrenergic receptor (Homo sapiens, UniProt P08588). The data set can be described thus: DRUGMATRIX: Adrenergic beta1 radioligand binding (ligand: [125I] Cyanopindolol). Type of data set: cell membranes, CHO-K1, Membrane. Conditions: cho-k1; Not Active = under 50% inhibition at 10 µM.
For data set [2], the target named is Tyrosine-protein kinase Fyn (Homo sapiens, UniProt P06241). Description: biochemical. Conditions: for IC50 / Ki: insect cells. Type of data set: cell-based, Insect cells.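 On all read-outs here: enzymatic inhibition of Fyn kinase activity measured with Poly(Glu:Tyr) as the phosphorylation substrate; in other assays of this panel Not Active means under 50% inhibition at 10 µM.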
Tyrosine-protein kinase Fyn, sequence (P06241 whole entry): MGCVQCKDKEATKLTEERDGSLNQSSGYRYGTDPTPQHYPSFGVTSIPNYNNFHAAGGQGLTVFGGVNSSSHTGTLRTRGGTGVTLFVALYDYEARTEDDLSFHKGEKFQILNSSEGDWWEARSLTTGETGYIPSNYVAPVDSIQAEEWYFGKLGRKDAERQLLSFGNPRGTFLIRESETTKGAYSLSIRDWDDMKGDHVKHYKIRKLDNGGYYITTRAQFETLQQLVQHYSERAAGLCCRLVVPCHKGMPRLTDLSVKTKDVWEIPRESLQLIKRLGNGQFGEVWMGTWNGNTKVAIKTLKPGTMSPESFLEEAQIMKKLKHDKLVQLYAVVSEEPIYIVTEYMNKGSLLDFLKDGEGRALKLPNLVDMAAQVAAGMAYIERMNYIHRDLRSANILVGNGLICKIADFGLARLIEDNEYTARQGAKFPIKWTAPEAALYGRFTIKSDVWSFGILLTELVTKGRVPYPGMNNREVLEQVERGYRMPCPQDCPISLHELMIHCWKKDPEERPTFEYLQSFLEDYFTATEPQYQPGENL
Data set [3] in a line: DRUGMATRIX: Purinergic P2X radioligand binding (ligand: [3H] alpha, beta-Methylene-ATP). Conditions: Not Active = under 50% inhibition at 10 µM. Type of data set: cell membranes, Oryctolagus cuniculus, New Zealand albino, Urinary bladder, Membrane.
The nature of data set [4]: DRUGMATRIX: GABAA, Flunitrazepam, Central radioligand binding (ligand: [3H] Flunitrazepam). Type of data set: cell membranes, Rattus norvegicus, Wistar, Brain, Membrane. Conditions: Not Active = under 50% inhibition at 10 µM.
Data set [5] deals with Beta-3 adrenergic receptor (Homo sapiens, UniProt P13945). Description: DRUGMATRIX: Adrenergic beta3 radioligand binding (ligand: [125I] Cyanopindolol). Type of data set: cell membranes, HEK293, Membrane. Conditions: hek293; Not Active = under 50% inhibition at 10 µM.
Beta-3 adrenergic receptor, sequence (P13945 whole entry): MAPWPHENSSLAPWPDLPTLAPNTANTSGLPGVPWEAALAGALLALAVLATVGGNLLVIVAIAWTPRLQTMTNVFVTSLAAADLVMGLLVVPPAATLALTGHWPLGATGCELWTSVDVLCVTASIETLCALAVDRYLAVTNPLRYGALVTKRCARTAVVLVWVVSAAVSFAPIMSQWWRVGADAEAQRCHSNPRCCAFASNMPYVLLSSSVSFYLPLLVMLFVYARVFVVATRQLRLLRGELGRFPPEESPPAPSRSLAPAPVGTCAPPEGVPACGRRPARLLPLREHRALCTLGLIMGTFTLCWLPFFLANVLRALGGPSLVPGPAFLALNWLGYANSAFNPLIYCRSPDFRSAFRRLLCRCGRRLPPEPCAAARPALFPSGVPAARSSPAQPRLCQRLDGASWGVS
The target of data set [6] is 5-hydroxytryptamine receptor 1B (Rattus norvegicus, UniProt P28564). Type of data set: cell membranes, Wistar, Cerebral cortex, Membrane. Further: in other assays of this panel Not Active means under 50% inhibition at 10 µM.
5-hydroxytryptamine receptor 1B, sequence (P28564 whole entry): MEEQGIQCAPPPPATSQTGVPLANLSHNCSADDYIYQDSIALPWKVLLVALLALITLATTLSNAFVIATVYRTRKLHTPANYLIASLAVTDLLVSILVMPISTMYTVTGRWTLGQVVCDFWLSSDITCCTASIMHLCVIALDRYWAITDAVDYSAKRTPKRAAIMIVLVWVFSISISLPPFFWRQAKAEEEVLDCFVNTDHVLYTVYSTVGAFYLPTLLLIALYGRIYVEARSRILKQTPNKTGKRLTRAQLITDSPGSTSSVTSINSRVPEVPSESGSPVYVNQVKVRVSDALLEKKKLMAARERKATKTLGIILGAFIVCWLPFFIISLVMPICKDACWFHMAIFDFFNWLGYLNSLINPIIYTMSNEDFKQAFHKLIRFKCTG
The target of another data set is Cytochrome P450 2E1 (Homo sapiens, UniProt P05181). Conditions: bti-tn-5b1-4. Further: in other assays of this panel Not Active means under 50% inhibition at 10 µM.
Cytochrome P450 2E1, sequence (P05181 whole entry): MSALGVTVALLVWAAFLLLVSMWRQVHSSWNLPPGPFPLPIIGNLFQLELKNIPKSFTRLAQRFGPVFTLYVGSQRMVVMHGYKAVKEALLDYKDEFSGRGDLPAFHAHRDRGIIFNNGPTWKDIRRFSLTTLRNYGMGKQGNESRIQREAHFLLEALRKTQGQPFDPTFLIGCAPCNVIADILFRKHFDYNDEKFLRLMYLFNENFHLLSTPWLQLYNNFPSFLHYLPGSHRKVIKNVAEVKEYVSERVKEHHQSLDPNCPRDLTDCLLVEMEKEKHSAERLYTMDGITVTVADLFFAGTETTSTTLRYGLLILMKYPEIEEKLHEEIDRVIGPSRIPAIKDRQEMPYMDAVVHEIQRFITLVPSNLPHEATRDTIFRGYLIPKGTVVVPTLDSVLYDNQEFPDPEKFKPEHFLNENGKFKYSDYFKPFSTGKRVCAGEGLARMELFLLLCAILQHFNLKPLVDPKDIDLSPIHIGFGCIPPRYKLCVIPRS

Beta-1 adrenergic receptor, sequence (P08588 whole entry): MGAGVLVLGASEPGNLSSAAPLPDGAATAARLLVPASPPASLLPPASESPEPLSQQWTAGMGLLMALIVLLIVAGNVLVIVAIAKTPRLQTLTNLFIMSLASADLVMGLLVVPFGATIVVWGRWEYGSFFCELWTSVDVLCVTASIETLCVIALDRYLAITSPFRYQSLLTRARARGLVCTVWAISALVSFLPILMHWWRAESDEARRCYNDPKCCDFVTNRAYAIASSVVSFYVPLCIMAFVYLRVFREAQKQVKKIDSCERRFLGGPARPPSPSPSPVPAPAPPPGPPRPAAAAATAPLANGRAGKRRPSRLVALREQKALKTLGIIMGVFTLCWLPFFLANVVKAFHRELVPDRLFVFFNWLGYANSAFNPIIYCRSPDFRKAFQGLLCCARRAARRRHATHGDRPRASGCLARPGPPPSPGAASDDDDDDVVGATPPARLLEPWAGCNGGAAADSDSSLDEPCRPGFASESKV

As to `CO[C@H]1C[C@@H]2CC[C@@H](C)[C@@](O)(O2)C(=O)C(=O)N2CCCC[C@H]2C(=O)O[C@H]([C@H](C)C[C@@H]2CC[C@@H](O)[C@H](OC)C2)CC(=O)[C@H](C)/C=C(\C)[C@@H](O)[C@@H](OC)C(=O)[C@H](C)C[C@H](C)/C=C/C=C/C=C/1C` [SIROLIMUS], the IC50 entry in data set [1], in data set [2], in data set [3], in data set [4], in data set [5] and in data set [6] was “Not Active” throughout. The IC50 result against Cytochrome P450 2E1 was “Not Active”. In addition, the Ki entry (in data set [3]; in data set [4]; at Cytochrome P450 2E1) was “Not Active” each time.

For the compound `CN[C@@H]1[C@H](O)[C@H](NC)[C@H]2O[C@@]3(O)C(=O)C[C@@H](C)O[C@H]3O[C@@H]2[C@H]1O` [SPECTINOMYCIN], the IC50 entry in data set [1], in data set [2], in data set [3], in data set [4], in data set [5] and in data set [6] was “Not Active” throughout. On Cytochrome P450 2E1, the IC50 entry is given as “Not Active”. In addition, the Ki result (in data set [3]; in data set [4]; on Cytochrome P450 2E1) was “Not Active” throughout.

Consider `Nc1ccc(S(=O)(=O)Nc2ncccn2)cc1` [SULFADIAZINE], for which the IC50 result in data set [1], in data set [2], in data set [3], in data set [4], in data set [5] and in data set [6] was “Not Active” each time. Besides, the IC50 entry at Cytochrome P450 2E1 is recorded as “Not Active”. In addition, the Ki result (in data set [3]; in data set [4]; at Cytochrome P450 2E1) was “Not Active” in each case.

For `COc1ncnc(NS(=O)(=O)c2ccc(N)cc2)c1OC` [SULFADOXINE], the IC50 entry in data set [1], in data set [2], in data set [3], in data set [4], in data set [5] and in data set [6] was “Not Active” throughout. In addition, the IC50 entry against Cytochrome P450 2E1 is recorded as “Not Active”. Further, the Ki entry (in data set [3]; in data set [4]; on Cytochrome P450 2E1) was “Not Active” in each case.

In the case of `Nc1ccc(S(=O)(=O)Nc2nccs2)cc1` [SULFATHIAZOLE], the IC50 entry in data set [1], in data set [2], in data set [3], in data set [4], in data set [5] and in data set [6] was “Not Active” each time. Further, on Cytochrome P450 2E1, the IC50 result is “Not Active”. The Ki result (in data set [3]; in data set [4]; on Cytochrome P450 2E1) was “Not Active” in each case.

With `C[C@]12CC[C@H]3[C@@H](CCC4=CC(=O)CC[C@@]43C)[C@@H]1CC[C@@H]2O` [TESTOSTERONE], the IC50 entry in data set [1], in data set [2], in data set [3], in data set [4], in data set [5] and in data set [6] was “Not Active” in each case. Besides, the IC50 entry on Cytochrome P450 2E1 was “Not Active”. In addition, the Ki entry (in data set [3]; in data set [4]; on Cytochrome P450 2E1) was “Not Active” throughout.

By pIC50 is commonly meant −log10 of the IC50, conventionally taken in molar units. As to `C[C@@H]1C[C@H]2[C@@H]3CCC4=CC(=O)C=C[C@]4(C)C3=CC[C@]2(C)[C@H]1C(=O)CN1CCN(c2cc(N3CCCC3)nc(N3CCCC3)n2)CC1` [TIRILAZAD], the IC50 result (in data set [1]; in data set [3]; in data set [4]; in data set [5]; in data set [6]; against Cytochrome P450 2E1) was “Not Active” in each case. The negative logarithm of the IC50 (pIC50) in data set [2] (read-out: IC50) is 5.95. Moreover, the Ki result (in data set [3]; in data set [4]; on Cytochrome P450 2E1) was “Not Active” throughout.

As to `NC[C@H]1O[C@H](O[C@H]2[C@H](O)[C@@H](O[C@H]3O[C@H](CO)[C@@H](O)[C@H](N)[C@H]3O)[C@H](N)C[C@@H]2N)[C@H](N)C[C@@H]1O` [TOBRAMYCIN], the IC50 result in data set [1], in data set [2], in data set [3], in data set [4], in data set [5] and in data set [6] was “Not Active” throughout. Also, the IC50 result at Cytochrome P450 2E1 is “Not Active”. In addition, the Ki result (in data set [3]; in data set [4]; at Cytochrome P450 2E1) was “Not Active” throughout.

Take `O=C(O)C(Cl)(Cl)Cl` [TRICHLOROACETIC ACID]: the IC50 entry in data set [1], in data set [2], in data set [3], in data set [4], in data set [5] and in data set [6] was “Not Active” throughout. Further, the IC50 result against Cytochrome P450 2E1 is “Not Active”. Also, the Ki result (in data set [3]; in data set [4]; at Cytochrome P450 2E1) was “Not Active” in each case.

Take `CC(=O)O[C@H]1C[C@@H]2CC[C@@H]3[C@H](CC[C@@]4(C)[C@H]3C[C@H]([N+]3(C)CCCCC3)[C@@H]4OC(C)=O)[C@@]2(C)C[C@@H]1N1CCCCC1.[Br-]` [VECURONIUM BROMIDE]: the IC50 entry in data set [1], in data set [2], in data set [3], in data set [4], in data set [5] and in data set [6] was “Not Active” throughout. Moreover, on Cytochrome P450 2E1, the IC50 entry is “Not Active”. The Ki entry (in data set [3]; in data set [4]; at Cytochrome P450 2E1) was “Not Active” each time.

With `COc1cc(C(=O)NS(=O)(=O)c2ccccc2C)ccc1Cc1cn(C)c2ccc(NC(=O)OC3CCCC3)cc12` [ZAFIRLUKAST], the IC50 entry in data set [1], in data set [2], in data set [3], in data set [4], in data set [5] and in data set [6] was “Not Active” throughout. For the same compound, the IC50 result against Cytochrome P450 2E1 is “Not Active”. The Ki result (in data set [3]; in data set [4]; on Cytochrome P450 2E1) was “Not Active” in each case.

Regarding `Cc1cn([C@H]2C[C@H](N=[N+]=[N-])[C@@H](CO)O2)c(=O)[nH]c1=O` [ZIDOVUDINE], the IC50 entry in data set [1], in data set [2], in data set [3], in data set [4], in data set [5] and in data set [6] was “Not Active” in each case. In addition, the IC50 result at Cytochrome P450 2E1 is given as “Not Active”. Besides, the Ki entry (in data set [3]; in data set [4]; on Cytochrome P450 2E1) was “Not Active” throughout.

On to STANNOUS FLUORIDE, for which the IC50 result in data set [1], in data set [2], in data set [3], in data set [4], in data set [5] and in data set [6] was “Not Active” each time. Besides, on Cytochrome P450 2E1, the IC50 entry was “Not Active”. Also, the Ki entry in data set [1], in data set [2], in data set [3], in data set [4], in data set [5] and in data set [6] was “Not Active” throughout. Further, the Ki entry at Cytochrome P450 2E1 is on record as “Not Active”.

For THIMEROSAL, the IC50 result in data set [1], in data set [2], in data set [3], in data set [4], in data set [5] and in data set [6] was “Not Active” throughout. Also, the IC50 result against Cytochrome P450 2E1 is “Not Active”. Also, the Ki result in data set [1], in data set [2], in data set [3], in data set [4], in data set [5] and in data set [6] was “Not Active” throughout. Besides, the Ki entry on Cytochrome P450 2E1 is “Not Active”.
